Data reported in patent US20220372560A1, “METHODS FOR DETECTING OLIGONUCLEOTIDES” (Takeda Pharmaceutical Company Limited, priority 2019, published 2022).

Experiment: Persistence of PMO and P-PMO in serum and tissues two weeks post-last dose (FIGS. 5a, 5b)
Assay type: in vivo
Conditions: mice
Protocol: PMO or P-PMO serial dilutions for standard curves and quality controls in 5.0% mouse serum, and 5.0 mg/ml or 1.0 mg/ml tissue homogenates were made using 1×TE buffer supplemented with 0.1% v/v Triton X-100 with a starting concentration of 51.2 nM PMO/P-PMO. Serum samples were diluted 20-fold, and tissues were homogenized and diluted to 5.0 mg/ml or 1.0 mg/ml tissue homogenates with the same buffer. 200 μL of calibrator solution, quality control, and/or sample were treated with 20 μL of 40 mg/ml trypsin (purchased as lyophilized powder from Sigma-Aldrich) at 37° C. overnight in a deep 1.0-mL 96-well plate on thermomixer C (600 rpm) to cleave the peptide component and release the PMO. 40 μL of 2.5 nM oligonucleotide probe in hybridization buffer (with 0.1% serum) was added to each well. The plate was then sealed, incubated at 65° C. for 15 minutes (600 rpm), and allowed to cool at room temperature for 15 minutes. […] The intensity of fluorescence at 444 nm excitation and 555 nm emission was measured by a […] SpectraMax MT5 microplate reader.
In order to test the persistence of oligonucleotides, serum and various tissues were also analyzed two weeks post-last dose. Serum levels for both PMO and P-PMO treated mice were measured in the 1 nM range. At this time point the overall oligonucleotide levels in the tissues analyzed were also similar (FIG. 5a). […]

What does the source list for “PMO: 25-mer PMO antisense sequence for mouse dystrophin exon-23, 5′-GGCCAAACCTCGGCTTACCTGAAAT-3′ (SEQ ID NO: 1), not conjugated to a peptide (all phosphorodiamidate morpholino (PMO))”?
serum levels: ~1 nM; overall oligonucleotide levels in the tissues analyzed, PMO compared with P-PMO (absolute concentrations (FIG. 5a)): similar
